The text below walks through data of ChEMBL document CHEMBL1153133, “2,4-Diaminopyrimidine MK2 inhibitors. Part I: Observation of an unexpected inhibitor binding mode” (Bioorg Med Chem Lett, 2010).

By IC50 is commonly meant the concentration at which inhibition is half-maximal.

In experiment [1] the target is T1, MAP kinase-activated protein kinase 2 (Homo sapiens, UniProt P49137). Nature of the experiment: Displacement of [8-3H]ATP from human recombinant MK2 (36-400) by scintillation proximity assay.
The target in experiment [2] is T1, MAP kinase-activated protein kinase 2. Nature of the experiment: Inhibition of human recombinant phospho-MK2 (36-400) by HTRF assay. (TR-FRET usually uses a lanthanide donor and a delayed reading to cut background.)
Experiment [3] shares this target. Nature of the experiment: Displacement of [8-3H]ATP from human recombinant MK2 (41-364) by scintillation proximity assay.

T1 sequence (P49137 whole entry): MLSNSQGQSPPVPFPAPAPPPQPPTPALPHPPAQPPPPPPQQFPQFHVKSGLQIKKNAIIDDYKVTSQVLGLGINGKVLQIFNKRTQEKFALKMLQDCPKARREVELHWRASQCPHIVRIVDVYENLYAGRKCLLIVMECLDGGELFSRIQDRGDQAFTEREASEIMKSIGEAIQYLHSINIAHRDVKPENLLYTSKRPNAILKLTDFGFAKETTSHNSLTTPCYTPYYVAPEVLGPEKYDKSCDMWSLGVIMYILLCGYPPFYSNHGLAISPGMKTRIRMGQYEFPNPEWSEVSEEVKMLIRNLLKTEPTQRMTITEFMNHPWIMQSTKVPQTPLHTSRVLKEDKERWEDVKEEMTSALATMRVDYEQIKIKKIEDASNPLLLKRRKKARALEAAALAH

Take `Nc1ncnc2c1ncn2[C@@H]1O[C@H](COP(=O)(O)OP(=O)(O)OP(=O)(O)O)[C@@H](O)[C@H]1O` (single isomer, unassigned) [ADENOSINE TRIPHOSPHATE]: the values for the IC50 in experiment [1], in experiment [2] and in experiment [3] were 6.3 µM, 2.8 µM and 12 µM, respectively.
